Measured values taken from patent publication US8329710B2, “Metformin folate and preparation of the same” (Sino-Us Pficker Pharmaceuticals Co., priority 2006, dated 2012).
Where a name gives a salt, the structure may show the parent alone.

Experiments:
[1] = test system: diabetic mice induced by streptozotocin; test: Animal test: blood glucose level in streptozotocin-induced diabetic mice, 10 days; assay type: in vivo; conditions: for capacity of lowering blood glucose, folacin-metformin compared with metformin hydrochloride (in words): diabetic mice, 10 days, 350 mg/kg vs 100 mg/kg body weight; for blood glucose level, After use: streptozotocin diabetic mice, day 10, folacin-metformin 350 mg/kg body weight, metformin hydrochloride 100 mg/kg body weight, mean of 6 mice
Method: (§1) The female mice were induced to diabetic mice by streptozotocin (body weight […]), 6 animals in one group. The data in the table below represented the average of the values of six mice. Normal healthy mice were used as control group 1, control group 2, and control group 3. Control group 1 was administered folacin-metformin (350 mg/kg body weight), control group 2 was administered metformin hydrochloride (100 mg/kg body weight), and control group 3 was administered normal saline. Diabetic mice were divided into three groups, each group was fed folacin-metformin (350 mg/kg body weight), metformin hydrochloride (100 mg/kg body weight) and normal saline, separately. The test lasted for 10 days, and the blood glucose levels and the homocysteine concentrations were detected for all the mice by the end of the test.
(§2) On day 10 of the test, test mice were anaesthetized by i.p. injection of 65 mg/kg body weight of sodium pentobarbital, then collected blood sample from the abdominal aorta. Blood glucose levels were determined by a standard protocol (Methods of Enzymatic Analysis, Vol. 3, 2nd ed. Verlag Chemie International, 1981, p1196-1201), and the homocysteine concentrations in the blood samples were determined using high performance liquid chromatograph according to the literature (Eur. J. Clin. Chem. Clin. Biochem. 1991, 29, 549-554).

[2] = after long-term use, recent clinical application; cited from earlier work
normal healthy mice [3] = test: Animal test: blood glucose level in normal healthy mice (control groups), 10 days; assay type: in vivo; conditions: for blood glucose level, After use: normal healthy mice, day 10, folacin-metformin 350 mg/kg body weight, metformin hydrochloride 100 mg/kg body weight, mean of 6 mice
Method: as §1, §2

[4] = test system: diabetic mice induced by streptozotocin; test: Animal test: homocysteine concentration in blood of streptozotocin-induced diabetic mice, 10 days; assay type: in vivo; conditions: metformin hydrochloride 100 mg/kg body weight
Method: as §1, §2

normal healthy mice [5] = test: Animal test: homocysteine concentration in blood of normal healthy mice (control groups), 10 days; assay type: in vivo; conditions: metformin hydrochloride 100 mg/kg body weight
Method: as §1, §2

Structure (SMILES) | capacity of lowering blood glucose, folacin-metformin compared with metformin hydrochloride (in words) [1] | blood glucose level, After use [1] | homocystein concentration in the patient (in words) [2] | blood glucose level, After use (normal healthy mice [3]) | increase of the homocysteine concentration while lowering the blood glucose (in words) ([4]; diabetic mice, 10 days, folacin-metformin 350 mg/kg) | homocystein concentration, After use ([4]; streptozotocin diabetic mice, day 10, folacin-metformin 350 mg/kg body weight, mean of 6 mice) | effect on the blood homocysteine concentration (in words) (normal healthy mice [5]; healthy mice, 10 days, folacin-metformin 350 mg/kg) | homocystein concentration, After use (normal healthy mice [5]; normal healthy mice, day 10, folacin-metformin 350 mg/kg body weight, mean of 6 mice) | effect on the blood glucose level (in words) (normal healthy mice [3]; healthy mice, 10 days, 350 mg/kg body weight)
CN(C)C(=N)N=C(N)N [metformin hydrochloride, reference compound] | no difference | 7.6 ± 1.4 mmol/L | substantially increased | 7.4 ± 1.7 mmol/L |  |  |  |  | 
CN(C)C(=N)N=C(N)N.Nc1nc2ncc(CNc3ccc(C(=O)N[C@@H](CCC(=O)O)C(=O)O)cc3)nc2c(=O)[nH]1 [folacin-metformin] | no difference | 7.4 ± 1.7 mmol/L |  | 7.2 ± 1.2 mmol/L | does not increase | 8.9 ± 0.9 µmol/L | slight lowering effect | 9.3 ± 1.1 µmol/L | no effect
